# Results reported in article PMC10149367, “The ferroptosis inducing compounds RSL3 and ML162 are not direct inhibitors of GPX4 but of TXNRD1” (Redox Biology, 2023).
# Experiments:
# [1] = test system: HT1080 cells; assay: Cytotoxicity assay, HT1080 cells; type: cell-based; details: HT1080, 24 h
# Description: (§1) Cell culture—H1975 and A549 cells were cultured in RPMI-1640 medium (HyClone) with Earle's salts supplemented and penicillin/streptomycin (100 μg/ml), while HT1080 cells were cultured in MEM medium for Fig. 2 experiments. For all other cellular experiments, A549 cells were cultured in DMEM 4.5 g/L glucose medium (Gibco), and H1975 cells in RPMI-1640 ATCC Modification (Gibco). Cell cultures were maintained at 37 °C in 5% CO2 in a medium containing 10% fetal bovine serum (FBS) (GE Healthcare, A15-102 for Fig. 2 experiments and Sigma, F7524 for all others). Experiments were performed with or without supplementation with 100 nM sodium selenite as described.
# (§2) Cytotoxicity assays— Cells were seeded in a 96-well plate at the density of 3 × 10^3 per well and allowed to adhere overnight. After which, cells were treated with various concentrations of compound for the indicated times, whereupon cell viability was determined using Cell Quanti-Blue™ Cell Viability Assay Kits (Nordic Diagnostica, CQBL-10K). Briefly, QUANTI-Blue Reagent (10 μL) was added to each well, incubated at 37 °C in 5% CO2 for 3 h, and then the plates were measured at 540nm/600 nm (Ex/Em) using the Tecan Microplate Reader (Morrisville NC, USA).
# [2] = test system: H1975 cells; assay: Cytotoxicity assay, H1975 cells; type: cell-based, human
# Description: as §1, §2
structure (smiles),measurement,setting,value
"COC(=O)c1ccc([C@@H]2c3[nH]c4ccccc4c3C[C@@H](C(=O)OC)N2C(=O)CCl)cc1 [RSL3, (1S,3R)RSL3]",Rescue from cytotoxicity by selenium supplementation,[1],no rescue
same,IC50,"[2]; 24 h, media not supplemented with selenium",150 nM
same,Rescue from cytotoxicity by selenium supplementation,"[2]; H1975, 24 h",partial rescue
